Results taken from publication PMC6085657, “DNA display of fragment pairs as a tool for the discovery of novel biologically active small molecules” (Chemical Science, 2014).
“And” between values parts separate entries of the source, which are not always exact repeats. Equal entries are not always repeated. “Also recorded” adds a separate entry of the source. Where two headings read alike, the source gives them in different places.

How the values were obtained:
Hsp70 [1] = target: T1, Hsp70 (Homo sapiens, UniProt P0DMV8); set-up: method as in PMID 16806043; details: read-out: affinity of Hsp70 for ligand; cited from earlier work
T1 sequence (P0DMV8 whole entry): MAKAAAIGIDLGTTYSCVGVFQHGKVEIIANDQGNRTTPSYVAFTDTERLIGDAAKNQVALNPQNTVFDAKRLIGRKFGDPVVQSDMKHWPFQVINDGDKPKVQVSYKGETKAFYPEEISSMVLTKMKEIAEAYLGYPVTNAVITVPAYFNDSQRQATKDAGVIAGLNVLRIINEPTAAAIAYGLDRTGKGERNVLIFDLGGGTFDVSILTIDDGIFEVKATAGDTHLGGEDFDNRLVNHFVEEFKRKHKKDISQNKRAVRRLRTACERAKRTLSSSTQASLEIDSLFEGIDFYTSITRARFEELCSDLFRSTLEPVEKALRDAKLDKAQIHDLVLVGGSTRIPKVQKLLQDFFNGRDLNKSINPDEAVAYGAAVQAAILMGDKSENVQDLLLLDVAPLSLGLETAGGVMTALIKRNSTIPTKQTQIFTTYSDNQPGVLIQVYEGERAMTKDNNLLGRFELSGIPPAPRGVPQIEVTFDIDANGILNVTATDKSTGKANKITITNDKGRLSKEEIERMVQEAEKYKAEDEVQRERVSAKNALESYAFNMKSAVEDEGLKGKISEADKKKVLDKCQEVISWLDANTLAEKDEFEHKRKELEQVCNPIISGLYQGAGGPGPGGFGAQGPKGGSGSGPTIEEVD

Hsp70 [2] = target: T1, Hsp70; test: Fluorescence polarization displacement assay with 1-FITC; format: binding; details: 1-FITC 25 nM, Hsp70 100 nM; R2 = 0.998; read-out: Affinity for Hsp70 by fluorescence polarization displacement (IC50)
Hsp70/Hsp40 = target: T2, Hsp70/Hsp40 (Homo sapiens, UniProt P0DMV8); test: Malachite Green Hsp70 ATPase assay; format: biochemical; details: for inhibition at 1 µM: 1 molar equivalent to Hsp70 (1 μM), read-out: ATPase inhibition in dose response; for ATPase inhibition: 200 molar equivalence of inhibitor (200 μM), Hsp70/Hsp40 1 μM, ATP 1 mM
T2 construct: purchased Novus Biologicals NBC1-18367
T2 sequence (P0DMV8 whole entry): as above

Hsp90 [3] = test: SPR affinity measurement, biotinylated compounds immobilized on a streptavidin chip, Hsp90 analyte; format: binding; details: compound immobilized on streptavidin chip, values in parentheses have chi2 > 10
[4] = target: T3, Heat shock 70 kDa protein 1A/1B (Homo sapiens, UniProt P0DMV8); test: Proteomic (MS-MS) analysis of pull-down from HEK crude cell lysate; format: binding; details: Hsp71_HUMAN in pull-down from HEK crude cell lysate
T3 construct: endogenous in cells; host or cells: HEK293-T
T3 sequence (P0DMV8 whole entry): as above

Hsp70-GST [5] = target: T4, Hsp70-GST (Homo sapiens, UniProt P0DMV8); test: Microarray-based screen of the focused library against Hsp70-GST (fluorescence, anti-GST DyLight 649); format: binding; details: fluorescence intensity on the microarray, mean of four spots, SD between 5% and 10%; PNA-tagged library member
T4 construct: purchased Signal Chem H34-54G
T4 sequence (P0DMV8 whole entry): as above
Description: A microarray pairing 125 biologically validated fragments[11] (FDA-approved drugs, bioactive natural products or fragments thereof) with a library of 500 heterocycles was used as a preliminary screen.[6] The microarray contained 62 500 unique DNA sequences that combinatorially paired both fragment libraries. […] The result from this screen with Hsp70 is shown in Fig. 2, arranged with fragments from the 125-fragment set and 500-fragment set on horizontal and vertical lines, respectively. The recurrence of binding across a line reflects the fitness of a given fragment. Thus, line intensities were used to rank the different fragments. What is interesting is that lines across the library of the 500-fragment set (4B, 24B, 44B, 84B, 124B, …) shared a common structural motif (biaryl-ether; Fig. 2). […] It is noteworthy that this biaryl moiety is part of a previously reported Hsp70 ligand (MAL3-101).[13],[14] […] Although screening fragments as conjugates to a nucleic acid tag restricts their binding mode to a particular orientation (the orientation that will position the linker to the tag toward the outside of the binding pocket), it greatly facilitates the synthesis of the corresponding covalent adduct combining both fragments, as the same chemistry that was used to link the fragments to the tag can be used to covalently pair them. Nonetheless, the linker length and conformational bias must be identified experimentally. We reasoned that the identified fragments could be used as the starting point for a focused library covalently pairing the fragments. This would allow for supplementing the selected fragment set with new entities (near neighbours) and enriching the local diversity space around these initial hits. Such iterative processes are highly efficient in sifting through a large diversity space. Following this strategy, we designed an Hsp70-focused library of 10 000 members using 20 fragments A × 5 different linkers with different lengths and geometrical constraints × 100 fragments B. The 100-fragment set contained 90 entities that were not present in the original screen. To be viable, an iterative library synthesis approach should be leveraged on chemistry that is compatible with SPPS and can be performed by automated PNA-encoded synthesis. As shown in Scheme 1, this was achieved through the use of three orthogonal amino group masking strategies (Mtt, Fmoc, and azide) that enabled selective chemical reactions at both sites of the linker joining the fragment and the encoding site. Thus, a resin derivatized with lysine with orthogonal protecting groups (Mtt and N3) was split into 100 pools and deprotected on one end (Mtt deprotection using HFIP), and the different linkers to join both fragments were introduced by standard peptide coupling method, affording the two sites for fragment coupling protected by Fmoc and Mtt, respectively.[15] The fragments were coupled using two different chemistries: for fragments containing a carboxylic acid, DIC/HOBt was used; for fragments with an amino group, hydroxyl, or aniline, the amino-functionalized linker was first treated with 4-nitrophenylchloroformate and the resulting carbamate coupled with the fragment. The azide was next reduced and the first 100 pools were encoded with a 7mer Boc-protected PNA sequence. The resins were mixed and split to introduce the second encoding 7mer sequence followed by deprotection of Mtt and the introduction of the corresponding second fragments. The success of each fragment coupling and encoding step was verified by MALDI analysis of an analytical sample. Cleavage of the final library and hybridization afforded the spatially resolved 10 000-member Hsp70-focused library. A slide containing 4-fold redundancy of each DNA sequence randomly distributed on the array was used to have four data points for each small molecule–target interaction, thus allowing a statistical analysis of the hits. The array was screened under three different conditions: Hsp70, Hsp70 + Hsp40, and Hsp70 + ATP. […]

Hsp70-GST [6] = target: T4, Hsp70-GST; test: Protein pull-down with ligand immobilized on streptavidin magnetic beads, Hsp70; format: binding; details: recombinant Hsp70-GST 300 nM, SDS PAGE
carbonic anhydrase = target: T5, carbonic anhydrase (Homo sapiens, UniProt P00918); test: Pull-down from crude HEK cell lysates, Western blot for carbonic anhydrase (negative control); format: binding; details: HEK lysate, negative control protein
T5 construct: endogenous in cells; host or cells: HEK293-T

Hsp70 [7] = target: T1, Hsp70; test: SPR affinity measurement, biotinylated compounds immobilized on a streptavidin chip, Hsp70 analyte; format: binding; details: compound immobilized on streptavidin chip, values in parentheses have chi2 > 10
Hsp70 [8] = target: T1, Hsp70; test: Pull-down of Hsp70 from crude HEK cell lysates, Western blot; format: binding; details: HEK lysate, Western blot with anti-Hsp70 antibody
Hsp90 [9] = test: Protein pull-down with ligand immobilized on streptavidin magnetic beads, Hsp90; format: binding; details: recombinant Hsp90 300 nM, SDS PAGE
Hsp70 [10] = target: T1, Hsp70; set-up: method as in PMID 15448148; details: cited from earlier work

| SMILES | FU microarray HSP70-GST (Hsp70-GST [5]) | Kd (Hsp70 [7]) | Kd (Hsp90 [3]) | other results |
| --- | --- | --- | --- | --- |
| Nc1ncnc2c1ncn2[C@@H]1O[C@H](COP(=O)(O)OP(=O)(O)O)[C@@H](O)[C@H]1O [ADP] |  |  |  | Kd (Hsp70 [1]): 260 nM |
| Cc1ccc(/C=C/C(=O)NCC(NC(=O)c2ccc(NC(=O)CCC(=O)c3ccc(-c4ccccc4)cc3)cc2)C(N)=O)cc1 (stereo not drawn) [Compound 1b] |  |  |  | IC50 (Hsp70 [2]): 31 nM; inhibition at 1 µM (Hsp70/Hsp40): > 50%; ATPase inhibition (Hsp70/Hsp40): complete inhibition |
| Cc1oncc1C(=O)Nc1ccc(O)c(C(=O)NCC(NC(=O)c2ccc(NC(=O)CCC(=O)c3ccc(-c4ccccc4)cc3)cc2)C(=O)NCCCCC(NC(=O)COCCOCCNC(=O)CCCCC2SCC3NC(=O)NC32)C(N)=O)c1 (stereo not drawn) [Compound 2a] | 28 653 FU | 1.58 nM |  | KD HSP90 (Hsp90 [3]): no measurable affinity; also recorded: Low binding; % Protein Coverage [4]: 24.8%; capture of Hsp70 on streptavidin magnetic beads (Hsp70-GST [6]): retained Hsp70; retention of carbonic anhydrase from crude cell lysates (carbonic anhydrase): no carbonic anhydrase; retention of Hsp70 from crude cell lysates (Hsp70 [8]): retained Hsp70; capture of Hsp90 on streptavidin magnetic beads (Hsp90 [9]): not Hsp90 |
| Cc1oncc1C(=O)Nc1ccc(O)c(C(=O)NCC(NC(=O)c2ccc(NC(=O)CCC(=O)c3ccc(-c4ccccc4)cc3)cc2)C(N)=O)c1 (stereo not drawn) [Compound 2b] |  |  |  | inhibition at 1 µM (Hsp70/Hsp40): > 50%; ATPase inhibition (Hsp70/Hsp40): complete inhibition |
| CSc1nnc(CCCOC(=O)NCC(NC(=O)CC2=C(C)C(=Cc3ccc([S+](C)[O-])cc3)c3ccc(F)cc32)C(=O)NCCCCC(NC(=O)COCCOCCNC(=O)CCCCC2SCC3NC(=O)NC32)C(N)=O)n1-c1ccc(Cl)cc1Cl (stereo not drawn) [Compound 4a] | 28 566 FU | 2.69 nM | 10.7 nM |  |
| NC(=O)C(CCCCNC(=O)C(CNC(=O)c1cccc(-c2cccnc2)c1)NC(=O)c1ccc(NC(=O)COCC(=O)N2CCCN(S(=O)(=O)c3cccc4cnccc34)CC2)cc1)NC(=O)COCCOCCNC(=O)CCCCC1SCC2NC(=O)NC21 (stereo not drawn) [Compound 5a] | 28 447 FU | 0.38 nM | 5.44 nM |  |
| CSc1nnc(CCCOC(=O)NCCCCC(NS(=O)(=O)c2ccc(-c3ccccc3)cc2)C(=O)NCCCCC(NC(=O)COCCOCCNC(=O)CCCCC2SCC3NC(=O)NC32)C(N)=O)n1-c1ccc(Cl)cc1Cl (stereo not drawn) [Compound 6a] | 28 958 FU | 2.33 nM | 18.7 nM |  |
| NC(=O)C(CCCCNC(=O)C(CCCCNC(=O)c1ccc2[nH]nc(Br)c2c1)NS(=O)(=O)c1ccc(-c2ccccc2)cc1)NC(=O)COCCOCCNC(=O)CCCCC1SCC2NC(=O)NC21 (stereo not drawn) [Compound 7a] | 24 143 FU | 1.34 nM | 3.17 nM |  |
| COc1ccc(C=CC(=O)NCC(NC(=O)c2cccc(NC(=O)CCC(=O)c3ccc(-c4ccccc4)cc3)c2)C(=O)NCCCCC(NC(=O)COCCOCCNC(=O)CCCCC2SCC3NC(=O)NC32)C(N)=O)cc1OC (stereo not drawn) [Compound 8a] | 27 982 FU | 0.8 nM | 16.9 nM |  |
| NC(=O)C(CCCCNC(=O)C(CNC(=O)c1ccc2[nH]nc(Br)c2c1)NC(=O)c1cccc(NC(=O)CCC(=O)c2ccc(-c3ccccc3)cc2)c1)NC(=O)COCCOCCNC(=O)CCCCC1SCC2NC(=O)NC21 (stereo not drawn) [Compound 9a] | 29 024 FU | 0.64 nM | 14.7 nM |  |
| COc1ccc(C=CC(=O)NCC(NC(=O)c2ccc(NC(=O)COCC(=O)NC(C)COc3c(C)cccc3C)cc2)C(=O)NCCCCC(NC(=O)COCCOCCNC(=O)CCCCC2SCC3NC(=O)NC32)C(N)=O)cc1OC (stereo not drawn) [Compound 10a] | 28 961 FU | 1.88 nM | 2.97 nM |  |
| CC(C(=O)Nc1cccc(C(=O)NC(CNC(=O)c2ccc3[nH]nc(Br)c3c2)C(=O)NCCCCC(NC(=O)COCCOCCNC(=O)CCCCC2SCC3NC(=O)NC32)C(N)=O)c1)c1cccc(Oc2ccccc2)c1 (stereo not drawn) [Compound 11a] | 27 941 FU | 12 nM and 12.1 nM | 5.6 nM |  |
| CSc1nnc(CCCOC(=O)NCC(NC(=O)CCC(=O)c2ccc(-c3ccccc3)cc2)C(=O)NCCCCC(NC(=O)COCCOCCNC(=O)CCCCC2SCC3NC(=O)NC32)C(N)=O)n1-c1ccc(Cl)cc1Cl (stereo not drawn) [Compound 12a] | 28 174 FU | 2.02 nM | 10.1 nM |  |
| CCC(COC(=O)NCCCCC(NC(=O)CC1=C(C)C(=Cc2ccc([S+](C)[O-])cc2)c2ccc(F)cc21)C(=O)NCCCCC(NC(=O)COCCOCCNC(=O)CCCCC1SCC2NC(=O)NC21)C(N)=O)c1ccccc1 (stereo not drawn) [Compound 13a] | 27 215 FU | 1.16 nM | 29.5 nM |  |
| COc1ccc(C=CC(=O)NCC(NC(=O)c2cccc(NS(=O)(=O)c3ccc(-c4ccccc4)cc3)c2)C(=O)NCCCCC(NC(=O)COCCOCCNC(=O)CCCCC2SCC3NC(=O)NC32)C(N)=O)cc1OC (stereo not drawn) [Compound 14a] | 28 588 FU | 2.88 nM | 52.8 nM |  |
| Cc1ccc(C(=O)NCC(NC(=O)c2cccc(NS(=O)(=O)c3ccc(Oc4ccccc4)cc3)c2)C(=O)NCCCCC(NC(=O)COCCOCCNC(=O)CCCCC2SCC3NC(=O)NC32)C(N)=O)cc1[N+](=O)[O-] (stereo not drawn) [Compound 15a] | 28 732 FU | 1.3 nM | 35.3 nM |  |
| CCCCCCN(C(=O)CCCCCN1C(=O)NC(c2ccc(-c3ccccc3)cc2)C(C(=O)OCc2ccccc2)=C1C)C(C(=O)NCCCC)c1ccc(OCC(=O)OC)c(C(=O)OC)c1 (stereo not drawn) [MAL3-101] |  |  |  | effect on Hsp70 ATPase activity (Hsp70 [10]): stimulate this activity |
